Reference: PMC8305912, “The HDAC/HSP90 Inhibitor G570 Attenuated Blue Light-Induced Cell Migration in RPE Cells and Neovascularization in Mice through Decreased VEGF Production” (Molecules, 2021)

How the values were obtained:
[1] = target: T1, Hsp90α (Homo sapiens, UniProt P07900); test: Heat shock protein (Hsp) 90α activity assay (fluorescence polarization, FITC-labeled geldanamycin); assay type: binding; conditions: read-out: HSP90 IC50
T1 construct: purchased BPS Bioscience

[2] = test system: HeLa nuclear extract HDAC; test: HeLa nuclear extract HDAC activity assay; assay type: biochemical; conditions: HeLa nuclear extract as HDAC source
[3] = test system: laser-induced choroidal neovascularization (CNV); test: Laser-induced choroidal neovascularization (CNV) model, fundus fluorescein angiography; assay type: in vivo, C57BL/6 mice; conditions: day 7, vs vehicle; G570 20 mg/kg/day i.p. days 0, 1, 3, 5; Eylea 40 μg/1 μL per eye i.v.t. day 0

IC50 [1]	Molecule	also measured
0.0493 ± 0.0016 µM	CC(C)c1cc(C(=O)N2CCc3cc(NC(=O)CCC(=O)NO)ccc32)c(O)cc1O [Compound 1, N1-(1-(2,4-dihydroxy-5-isopropylbenzoyl)indolin-5-yl)-N4-hydroxysuccinamide]	
0.0586 ± 0.0022 µM	CC(C)c1cc(C(=O)N2CCc3cc(NC(=O)CCCCCCCCC(=O)NO)ccc32)c(O)cc1O [Compound 7, N1-(1-(2,4-dihydroxy-5-isopropylbenzoyl)indolin-5-yl)-N10-hydroxydecanediamide]	
0.0402 ± 0.0052 µM	CC(C)c1cc(C(=O)N2CCc3cc(NC(=O)CCCCCC(=O)NO)ccc32)c(O)cc1O [Compound 4, N1-(1-(2,4-dihydroxy-5-isopropylbenzoyl)indolin-5-yl)-N7-hydroxyheptanediamide]	
	COc1c(C)cnc(Cn2cnc3c(Cl)nc(N)nc32)c1C [BIIB021]	IC50 [2]: > 1 µM
0.0559 ± 0.0032 µM	CC(C)c1cc(C(=O)N2CCc3cc(NC(=O)CCCC(=O)NO)ccc32)c(O)cc1O [Compound 2, N1-(1-(2,4-dihydroxy-5-isopropylbenzoyl)indolin-5-yl)-N5-hydroxyglutaramide]	
	aflibercept [Eylea]	laser-induced leakage area of fluorescein (FFA) [3]: significantly decreased
> 1 µM	O=C(CCCCCCC(=O)Nc1ccccc1)NO [SAHA, reference compound]	
0.0521 ± 0.0029 µM	CC(C)c1cc(C(=O)N2CCc3cc(NC(=O)CCCCCCCC(=O)NO)ccc32)c(O)cc1O [Compound 6, N1-(1-(2,4-dihydroxy-5-isopropylbenzoyl)indolin-5-yl)-N9-hydroxynonanediamide]	
